Results: paper PMC9005681, “Use of AD Informer Set compounds to explore validity of novel targets in Alzheimer's disease pathology” (Alzheimer's & Dementia : Translational Research & Clinical …, 2022)
Where “and” joins values, the source holds several entries; their conditions need not be identical. Identical values can stand only once.

Assays:
Test in all cases: PDSP GPCR panel primary binding assays at 10 μM
Conditions in all cases: primary assay
[1] = molecular target: T1, cloned human or rodent CNS receptors, channels, and transporters (PDSP panel) (Homo sapiens, UniProt P18089)
T1 construct: expressed in transfected cells
T1 sequence (P18089 1-450): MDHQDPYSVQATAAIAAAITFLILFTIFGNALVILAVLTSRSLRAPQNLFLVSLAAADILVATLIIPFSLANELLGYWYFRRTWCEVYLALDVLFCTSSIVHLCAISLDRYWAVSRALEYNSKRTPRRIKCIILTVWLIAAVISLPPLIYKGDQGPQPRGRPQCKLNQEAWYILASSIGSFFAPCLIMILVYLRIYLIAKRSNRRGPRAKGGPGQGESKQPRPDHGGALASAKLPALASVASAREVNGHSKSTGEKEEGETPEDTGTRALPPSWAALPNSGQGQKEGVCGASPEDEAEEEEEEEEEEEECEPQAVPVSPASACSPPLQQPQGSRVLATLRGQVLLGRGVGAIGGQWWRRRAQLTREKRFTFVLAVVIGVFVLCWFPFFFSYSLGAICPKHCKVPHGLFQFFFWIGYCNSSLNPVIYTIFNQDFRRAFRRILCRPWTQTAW
Summary of the method: (§1)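 Radioligand displacement at cloned human or rodent CNS targets: 46–47 primary binding assays run in quadruplicate at 10 μM. Targets where the compound displaced an average of >50% of radiolabeled standard ligand went to secondary binding in 11-point dose-response, in triplicate; none run for H3, PBR or GABAA.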

[2] = molecular target: T2, cloned human or rodent CNS receptors, channels, and transporters (PDSP panel) (Homo sapiens, UniProt P35372)
T2 construct: expressed in transfected cells
Summary of the method: as §1

[3] = molecular target: T3, cloned human or rodent CNS receptors, channels, and transporters (PDSP panel) (Homo sapiens, UniProt P21917)
T3 construct: expressed in transfected cells
T3 sequence (P21917 1-419): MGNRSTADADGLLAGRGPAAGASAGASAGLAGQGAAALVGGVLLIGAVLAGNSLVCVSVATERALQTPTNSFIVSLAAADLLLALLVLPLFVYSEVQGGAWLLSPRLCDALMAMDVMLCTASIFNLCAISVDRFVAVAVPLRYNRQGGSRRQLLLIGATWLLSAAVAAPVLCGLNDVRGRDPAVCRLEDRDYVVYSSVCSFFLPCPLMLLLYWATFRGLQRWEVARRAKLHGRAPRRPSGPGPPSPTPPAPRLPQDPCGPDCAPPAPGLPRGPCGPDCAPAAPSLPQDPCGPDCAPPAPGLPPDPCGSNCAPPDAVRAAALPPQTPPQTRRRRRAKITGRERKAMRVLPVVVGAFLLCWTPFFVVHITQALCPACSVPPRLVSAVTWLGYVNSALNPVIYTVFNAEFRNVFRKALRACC
Summary of the method: as §1

[4] = molecular target: T4, cloned human or rodent CNS receptors, channels, and transporters (PDSP panel) (Homo sapiens, UniProt P25100)
T4 construct: expressed in transfected cells
T4 sequence (P25100 1-572): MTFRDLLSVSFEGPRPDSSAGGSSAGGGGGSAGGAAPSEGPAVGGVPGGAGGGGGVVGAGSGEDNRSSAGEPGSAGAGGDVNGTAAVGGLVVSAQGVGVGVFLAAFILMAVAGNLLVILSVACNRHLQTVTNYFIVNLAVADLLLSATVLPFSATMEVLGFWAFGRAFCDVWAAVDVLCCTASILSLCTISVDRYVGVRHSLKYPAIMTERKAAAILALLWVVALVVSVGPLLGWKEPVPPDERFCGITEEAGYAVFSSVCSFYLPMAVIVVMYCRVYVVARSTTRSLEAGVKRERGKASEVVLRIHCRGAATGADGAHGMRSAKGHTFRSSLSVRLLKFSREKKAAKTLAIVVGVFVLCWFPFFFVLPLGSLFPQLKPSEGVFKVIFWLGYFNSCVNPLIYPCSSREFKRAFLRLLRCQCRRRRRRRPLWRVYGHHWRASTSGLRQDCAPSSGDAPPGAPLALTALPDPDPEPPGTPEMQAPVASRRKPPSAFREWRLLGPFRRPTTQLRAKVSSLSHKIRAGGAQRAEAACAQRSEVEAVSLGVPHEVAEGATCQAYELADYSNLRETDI
Summary of the method: as §1

[5] = molecular target: T5, cloned human or rodent CNS receptors, channels, and transporters (PDSP panel) (Homo sapiens, UniProt P31645)
T5 construct: expressed in transfected cells
Summary of the method: as §1

[6] = molecular target: T6, cloned human or rodent CNS receptors, channels, and transporters (PDSP panel) (Homo sapiens, UniProt P47898)
T6 construct: expressed in transfected cells
Summary of the method: as §1

T2 sequence (P35372 whole entry): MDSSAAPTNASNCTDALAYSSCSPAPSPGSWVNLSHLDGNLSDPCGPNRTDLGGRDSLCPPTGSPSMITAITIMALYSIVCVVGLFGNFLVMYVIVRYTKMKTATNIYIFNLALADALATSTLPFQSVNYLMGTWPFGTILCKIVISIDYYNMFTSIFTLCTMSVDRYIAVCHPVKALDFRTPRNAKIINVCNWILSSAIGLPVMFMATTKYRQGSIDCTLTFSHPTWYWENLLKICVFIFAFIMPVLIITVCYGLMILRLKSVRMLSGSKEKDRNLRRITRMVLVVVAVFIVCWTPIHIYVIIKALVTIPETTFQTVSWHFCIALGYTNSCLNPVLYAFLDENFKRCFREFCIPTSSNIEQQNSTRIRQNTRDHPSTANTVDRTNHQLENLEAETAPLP
T5 sequence (P31645 whole entry): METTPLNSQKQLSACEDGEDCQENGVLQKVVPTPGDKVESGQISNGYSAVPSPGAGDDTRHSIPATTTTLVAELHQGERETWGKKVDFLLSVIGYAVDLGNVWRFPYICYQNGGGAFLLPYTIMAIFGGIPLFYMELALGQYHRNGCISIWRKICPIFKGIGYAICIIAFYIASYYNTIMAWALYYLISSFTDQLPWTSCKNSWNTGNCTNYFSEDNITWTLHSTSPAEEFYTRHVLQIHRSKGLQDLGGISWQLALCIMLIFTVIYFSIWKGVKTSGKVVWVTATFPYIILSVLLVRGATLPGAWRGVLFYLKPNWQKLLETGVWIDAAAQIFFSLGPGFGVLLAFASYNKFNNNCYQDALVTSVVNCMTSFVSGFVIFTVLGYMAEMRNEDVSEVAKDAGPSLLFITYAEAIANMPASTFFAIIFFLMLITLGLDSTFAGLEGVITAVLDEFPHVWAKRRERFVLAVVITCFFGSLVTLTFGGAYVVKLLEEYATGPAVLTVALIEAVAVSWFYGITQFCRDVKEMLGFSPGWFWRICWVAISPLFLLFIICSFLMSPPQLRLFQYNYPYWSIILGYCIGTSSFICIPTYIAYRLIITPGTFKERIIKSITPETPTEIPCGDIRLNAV
T6 sequence (P47898 whole entry): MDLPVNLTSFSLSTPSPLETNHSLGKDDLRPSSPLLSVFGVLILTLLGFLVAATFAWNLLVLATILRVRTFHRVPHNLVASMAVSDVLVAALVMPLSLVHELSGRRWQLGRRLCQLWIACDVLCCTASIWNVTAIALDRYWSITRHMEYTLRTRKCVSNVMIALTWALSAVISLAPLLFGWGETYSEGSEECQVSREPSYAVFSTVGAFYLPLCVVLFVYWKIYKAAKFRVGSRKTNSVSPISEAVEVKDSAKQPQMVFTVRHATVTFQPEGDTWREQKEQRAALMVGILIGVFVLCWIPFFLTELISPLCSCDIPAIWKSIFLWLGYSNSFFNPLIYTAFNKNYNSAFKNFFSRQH

## CCCCNc1ncc2c(-c3ccc(CN4CCN(C)CC4)cc3)cn([C@H]3CC[C@H](O)CC3)c2n1 [UNC2025C, UNC2025]
[1]; Receptor Alpha2B, 10 μM
  Inhibition 1: 27.09%
  Inhibition 2: 28.85%
  Inhibition 3: -0.55%
  Inhibition 4: 53.34%
[1]; Receptor Alpha2B, 10 μM, mean of Inhibition 1-4
  Mean %: 27.18%
[2]; Receptor MOR, 10 μM
  Inhibition 1: 9.74%
  Inhibition 2: 12.91%
  Inhibition 3: 2.36%
  Inhibition 4: 6.67%
[2]; Receptor MOR, 10 μM, mean of Inhibition 1-4
  Mean %: 7.92%
[3]; Receptor D4, 10 μM
  Inhibition 1: 1.91%
  Inhibition 2: -16.35%
  Inhibition 3: 0.67%
  Inhibition 4: 12.24%
[3]; Receptor D4, 10 μM, mean of Inhibition 1-4
  Mean %: -0.38%
[4]; Receptor Alpha1D, 10 μM
  Inhibition 1: 50.98%
  Inhibition 2: 57.37%
  Inhibition 3: 48.7%
  Inhibition 4: 44.3%
[4]; Receptor Alpha1D, 10 μM, mean of Inhibition 1-4
  Mean %: 50.34%
[5]; Receptor SERT, 10 μM
  Inhibition 1: 82.19% and 71%
  Inhibition 2: 70.62% and 68.78%
  Inhibition 3: 68.77% and 67.79%
  Inhibition 4: 72.64% and 73.98%
[5]; Receptor SERT, 10 μM, mean of Inhibition 1-4
  Mean %: 73.56% and 70.39%
[6]; Receptor 5-HT5A, 10 μM
  Inhibition 1: 24.59%
  Inhibition 2: 14.3%
  Inhibition 3: 9.95%
  Inhibition 4: 29.74%
[6]; Receptor 5-HT5A, 10 μM, mean of Inhibition 1-4
  Mean %: 19.65%

## O=C(NC1CC1)C(=O)C(Cc1ccccc1)NC(=O)[C@H]1CCC(=O)N1Cc1ccccc1 (stereo partly drawn) [UNC10302676A, ABT-957 (Alicapistat)]
[1]; Alpha2B, mean inhibition
  Mean %: 8.48%
[1]; Alpha2B, replicate 1
  Inhibition 1: 16.01%
[1]; Alpha2B, replicate 2
  Inhibition 2: 17.34%
[1]; Alpha2B, replicate 3
  Inhibition 3: -9.53%
[1]; Alpha2B, replicate 4
  Inhibition 4: 10.08%
[2]; MOR, mean inhibition
  Mean %: 7.04%
[2]; MOR, replicate 1
  Inhibition 1: 10.32%
[2]; MOR, replicate 2
  Inhibition 2: 13.58%
[2]; MOR, replicate 3
  Inhibition 3: -4.06%
[2]; MOR, replicate 4
  Inhibition 4: 8.3%
[3]; D4, mean inhibition
  Mean %: 0.58%
[3]; D4, replicate 1
  Inhibition 1: 5.07%
[3]; D4, replicate 2
  Inhibition 2: -11.66%
[3]; D4, replicate 3
  Inhibition 3: 8.7%
[3]; D4, replicate 4
  Inhibition 4: 0.19%
[4]; Alpha1D, mean inhibition
  Mean %: -2.1%
[4]; Alpha1D, replicate 1
  Inhibition 1: 4.8%
[4]; Alpha1D, replicate 2
  Inhibition 2: -9.7%
[4]; Alpha1D, replicate 3
  Inhibition 3: -4.72%
[4]; Alpha1D, replicate 4
  Inhibition 4: 1.24%
[5]; SERT, mean inhibition
  Mean %: -3.96% and -1.74%
[5]; SERT, replicate 1
  Inhibition 1: 1.77% and -7.1%
[5]; SERT, replicate 2
  Inhibition 2: -9.07% and 1.55%
[5]; SERT, replicate 3
  Inhibition 3: -5.87% and 7.1%
[5]; SERT, replicate 4
  Inhibition 4: -2.67% and -8.51%
[6]; 5-HT5A, mean inhibition
  Mean %: -3.42%
[6]; 5-HT5A, replicate 1
  Inhibition 1: 4.48%
[6]; 5-HT5A, replicate 2
  Inhibition 2: -8.24%
[6]; 5-HT5A, replicate 3
  Inhibition 3: -6.55%
[6]; 5-HT5A, replicate 4
  Inhibition 4: -3.37%
